Experimental data from patent publication US20240270821A1, “GIP/GLP1/GCG TRI-RECEPTOR AGONISTS AND USES THEREOF” (priority 2023, published 2024).
Starred links: 1 amine or outer side, 2 acyl side, 3 side chain; linkers in the order of their positions; H or OH if unused. Non-standard residues stand in square brackets, D forms with d. Groups on a side chain read outwards from the residue. *: point of attachment. C20 diacid = O=C(O)CCCCCCCCCCCCCCCCCCC(=O)*; C18 diacid = O=C(O)CCCCCCCCCCCCCCCCC(=O)*; αMePhe(2-F) = C[C@](N)(Cc1ccccc1F)C(=O)O; γGlu = O=C(O)[C@H](CCC(=O)[*:2])N[*:1]; αMeF = C[C@](N)(Cc1ccccc1)C(=O)O; αMeL = CC(C)C[C@](C)(N)C(=O)O; Orn = NCCC[C@H](N)C(=O)O; AEEA = NCCOCCOCC(=O)O; Aib = CC(C)(N)C(=O)O

Legend:
Assay type in all cases: cell-based
[1] = target: T1, hGLP-1R (Homo sapiens, UniProt P43220); assay: Functional cAMP activation in the presence of 0.1% casein (no HSA); details: in the presence of 0.1% casein (no HSA); geometric mean; read-out: Relative cAMP EC50, hGLP-1R;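 also: intracellular cAMP rise after 30 min at 37 °C read by HTRF, normalized between buffer only (0%) and maximal control ligand (100%), four-parameter variable-slope fit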
Target sequence in this assay (P43220 24-463): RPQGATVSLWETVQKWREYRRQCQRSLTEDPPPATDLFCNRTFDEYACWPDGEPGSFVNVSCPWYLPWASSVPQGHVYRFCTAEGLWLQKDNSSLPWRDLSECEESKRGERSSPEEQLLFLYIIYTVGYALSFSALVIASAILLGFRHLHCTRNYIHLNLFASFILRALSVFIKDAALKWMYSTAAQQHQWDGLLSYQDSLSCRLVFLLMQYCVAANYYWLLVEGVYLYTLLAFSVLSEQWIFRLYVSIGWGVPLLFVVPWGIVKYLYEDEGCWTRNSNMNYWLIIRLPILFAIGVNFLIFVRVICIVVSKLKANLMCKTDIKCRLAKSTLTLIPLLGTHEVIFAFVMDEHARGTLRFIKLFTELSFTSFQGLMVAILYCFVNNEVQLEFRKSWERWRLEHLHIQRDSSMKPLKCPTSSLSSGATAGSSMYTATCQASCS

[2] = target: human GcgR (Homo sapiens, UniProt P47871); assay: Functional cAMP activity in the presence of 1% HSA; details: read-out: cAMP Rel EC50, hGcgR
[3] = target: T2, hGIPR (Homo sapiens, UniProt P48546); assay: Functional cAMP activation in the presence of 0.1% casein (no HSA); details: in the presence of 0.1% casein (no HSA); geometric mean; read-out: Relative cAMP EC50, hGIPR;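 also: intracellular cAMP rise after 30 min at 37 °C read by HTRF against a standard curve, scaled between buffer alone (0%) and top control ligand concentration (100%), four-parameter fit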
T2 sequence (P48546 22-466): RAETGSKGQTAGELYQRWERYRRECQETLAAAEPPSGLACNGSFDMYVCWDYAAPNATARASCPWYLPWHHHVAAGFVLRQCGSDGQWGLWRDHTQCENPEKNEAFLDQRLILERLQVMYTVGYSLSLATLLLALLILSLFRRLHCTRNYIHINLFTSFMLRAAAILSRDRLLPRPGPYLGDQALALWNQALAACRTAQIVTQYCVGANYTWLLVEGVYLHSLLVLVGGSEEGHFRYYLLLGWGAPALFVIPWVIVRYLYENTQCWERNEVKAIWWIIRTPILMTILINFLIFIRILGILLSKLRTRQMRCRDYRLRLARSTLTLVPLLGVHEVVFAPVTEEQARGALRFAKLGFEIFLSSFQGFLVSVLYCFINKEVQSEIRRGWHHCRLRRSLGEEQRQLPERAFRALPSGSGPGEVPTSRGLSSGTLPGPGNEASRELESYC

[4] = target: T1, hGLP-1R; assay: GLP-1R CHO cell β-arrestin recruitment assay; set-up: host or cells: CHO-K1 (PathHunter, assay-ready frozen cells); details: for EC50: CHO-K1 PathHunter, β-arrestin-2, 0.1% casein, read-out: hGLP1R β-arrestin Rel EC50; for % Stimulation Max: normalized to GLP-1(7-36) as maximum control;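 as to all read-outs here: luminescence read after 90 min peptide exposure at 37 °C and a further 60 min with detection reagent at room temperature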
Target sequence in this assay (P43220 24-463): as the sequence (P43220 24-463) above
Target sequence in this assay (P32121 whole entry partner): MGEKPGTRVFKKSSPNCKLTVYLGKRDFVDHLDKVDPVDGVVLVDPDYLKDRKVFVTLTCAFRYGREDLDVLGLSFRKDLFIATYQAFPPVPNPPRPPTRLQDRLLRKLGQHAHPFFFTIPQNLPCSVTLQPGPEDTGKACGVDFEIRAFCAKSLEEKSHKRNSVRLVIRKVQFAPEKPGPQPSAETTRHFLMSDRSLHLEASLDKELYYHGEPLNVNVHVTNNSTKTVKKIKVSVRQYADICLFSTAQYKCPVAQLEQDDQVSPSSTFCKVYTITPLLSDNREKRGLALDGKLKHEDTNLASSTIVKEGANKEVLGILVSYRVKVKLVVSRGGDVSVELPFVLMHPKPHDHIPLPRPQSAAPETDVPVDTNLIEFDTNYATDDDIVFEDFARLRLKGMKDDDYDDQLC
Description: CHO-KI cells expressing Pro-Link-tagged Human GLP-1R and enzyme-acceptor-tagged β-arrestin-2 may be obtained from DiscoveRx and prepared as assay-ready frozen cells. Test peptides are solubilized in DMSO and serial dilutions are performed using the Echo acoustic dispenser (LabCyte). Assay media is the PathHunter Cell Assay Buffer (DiscoveRx) containing 0.1% w/v hydrolyzed Casein (Sigma). […] Plates are incubated for 90 minutes in a 37′C/5% C02 incubator and 10 μl of PathHunter detection reagent is added (DiscoveRx) and plates are incubated at room temperature for 60 minutes. Luminescence signal is measured. Peptide concentration-response curves fit to a four-parameter logistic model to calculate potency as an EC50.

[5] = target: hGcgR (Homo sapiens, UniProt P47871); assay: Functional cAMP activation in the presence of 0.1% casein (no HSA); details: in the presence of 0.1% casein (no HSA); geometric mean; read-out: Relative cAMP EC50, hGcgR;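 also: intracellular cAMP rise after 30 min at 37 °C, read by HTRF against a cAMP standard curve, scaled from buffer only (0%) to maximal control ligand response (100%)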
[6] = target: T1, hGLP-1R; assay: Functional cAMP activity in the presence of 1% HSA; details: read-out: cAMP Rel EC50, hGLP-1R
Target sequence in this assay (P43220 24-463): as the sequence (P43220 24-463) above

[7] = target: T2, hGIPR; assay: Functional cAMP activity in the presence of 1% HSA; details: read-out: cAMP Rel EC50, hGIPR
[8] = target: human GLP1-R (Homo sapiens, UniProt P43220); assay: GLP1-R internalization assay in HEK293 cells; details: for EC50: HEK293 cells expressing SNAP-GLP-1R, read-out: GLP1R Internalization EC50; for Internalization % TOP: normalized to maximum concentration of GLP-1 (100%)
human GLP1-R, sequence (P43220 24-463): as above

human GcgR, sequence (P47871 26-477): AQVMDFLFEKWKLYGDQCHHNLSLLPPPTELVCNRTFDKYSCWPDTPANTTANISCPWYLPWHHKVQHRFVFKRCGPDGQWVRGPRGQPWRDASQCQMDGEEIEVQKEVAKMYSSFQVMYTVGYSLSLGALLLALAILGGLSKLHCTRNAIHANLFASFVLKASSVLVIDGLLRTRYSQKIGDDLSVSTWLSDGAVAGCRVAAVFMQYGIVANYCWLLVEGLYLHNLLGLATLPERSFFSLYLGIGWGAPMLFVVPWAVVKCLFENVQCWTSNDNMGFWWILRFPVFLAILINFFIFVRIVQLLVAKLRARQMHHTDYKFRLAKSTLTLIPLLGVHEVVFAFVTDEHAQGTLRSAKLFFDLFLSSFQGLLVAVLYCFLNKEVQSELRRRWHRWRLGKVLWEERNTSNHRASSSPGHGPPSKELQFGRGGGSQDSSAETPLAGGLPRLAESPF
hGcgR, sequence (P47871 26-477): as above

Substance	EC50 [1] [nM]	EC50 [2] [nM]	EC50 [3] [nM]	EC50 [4] [nM]	% Stimulation Max [4] [%]	EC50 [5] [nM]	EC50 [6] [nM]	EC50 [7] [nM]	EC50 [8] [nM]	Internalization % TOP [8] [%]
H-H[Aib]QGT[αMePhe(2-F)]TSDYSILLDKK([AEEA-γGlu-C20 diacid])AA[Aib]AFIEYLIEAGPSSGEPPPSEG-NH2 [Example 298]	0.277	1570	0.138	3.29	86.4	1.04	70.9	41.3	–	–
H-Y[Aib]QGTFTSDFSK[αMeL]LDKK([AEEA-AEEA-γGlu-C20 diacid])AQ[Aib]AFIEYLLAGGPSSGEPPPSSE-NH2 [Example 5]	2.37	2670	0.177	> 10000	18.4	7.4	675	32.5	53.4	75
H-Y[Aib]QGTFTSDFSK[αMeL]LDKK([AEEA-γGlu-C20 diacid])AQ[Aib]AFIEYLLAGGPSSGEPPPSSE-NH2 [Example 3]	1.67	1590	0.217	> 10000	16.5	3.8	546	48.1	49.2	69.7
H-Y[Aib]QGTFTSDYSI[αMeL]LDKIAAK([AEEA-AEEA-γGlu-C20 diacid])[Orn]FVQYLIAGGPSSGEPPPSEG-NH2 [Example 308]	3.15	4950	–	16.9	41.4	14.2	477	237	–	–
H-Y[Aib]QGTFTSDYSI[αMeL]LDKK([AEEA-AEEA-γGlu-C20 diacid])AA[Aib]AFIEYLLEGGPSSGEPPPSEG-NH2 [Example 294]	2.16	518	0.318	27.7	35.3	1.07	554	54.1	–	–
H-Y[Aib]QGTFTSDYSI[αMeL]LDKQAAK([AEEA-AEEA-γGlu-C20 diacid])AFVEWLLAGGPSSGEPPPSEG-NH2 [Example 305]	1.48	1500	1	23.3	58.3	6.73	415	92.4	–	–
H-Y[Aib]QGT[αMeF]TSDYSILLDKIAAK([AEEA-AEEA-γGlu-C18 diacid])NFIEYLVEGGPSSGEPPPSEG-NH2 [Example 307]	0.836	1880	0.446	9.86	70.8	1.68	209	65.3	–	–
H-Y[Aib]QGT[αMePhe(2-F)]TSDYSILLDKIAQK([AEEA-γGlu-C20 diacid])AFIEYLLEGGPSSGEPPPSEG-NH2 [Example 293]	0.994	1740	0.0587	11.9	54.6	4.01	295	9.63	–	–
H-Y[Aib]QGT[αMePhe(2-F)]TSDYSKILDKIAQK([AEEA-γGlu-C20 diacid])AFIEYLLEGGPSSGEPPPSEG-NH2 [Example 311]	3.36	2500	0.113	19.2	39.6	2.08	1080	26.1	–	–
